# In the supplement of paper PMC10307832:
# Columns and labels:
# Experiment in all cases: relative viability (nuclei count vs DMSO), 5 days (fraction); higher = more cells survive
# 201T = tested on: 201T
# How it was run: (§1)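 Values are medians from duplicate plates. Each reflects relative viability, defined as the nuclei count of treated wells over that of vehicle wells. Lung cancer cell lines in 1536-well plates were pin-tool dosed one day after seeding with one drug alone or with a fixed anchor-drug dose plus five library-drug doses (not always all listed) in √10 steps, then fixed, stained and imaged at 4× after 5 days.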
# BEN = tested on: BEN
# How it was run: as §1
# CAL-12T = tested on: CAL-12T
# How it was run: as §1
# HCC-827 = tested on: HCC-827
# How it was run: as §1
# LCLC-103H = tested on: LCLC-103H
# How it was run: as §1
# LCLC-97TM1 = tested on: LCLC-97TM1
# How it was run: as §1
# LXF-289 = tested on: LXF-289
# How it was run: as §1
# NCI-H1395 = tested on: NCI-H1395
# How it was run: as §1
# NCI-H1437 = tested on: NCI-H1437
# How it was run: as §1
# NCI-H1650 = tested on: NCI-H1650
# How it was run: as §1
# NCI-H1793 = tested on: NCI-H1793
# How it was run: as §1
# NCI-H1944 = tested on: NCI-H1944
# How it was run: as §1
# NCI-H2087 = tested on: NCI-H2087
# How it was run: as §1
# NCI-H2228 = tested on: NCI-H2228
# How it was run: as §1
# NCI-H2405 = tested on: NCI-H2405
# How it was run: as §1
# NCI-H3122 = tested on: NCI-H3122
# How it was run: as §1
# NCI-H322M = tested on: NCI-H322M
# How it was run: as §1
# NCI-H647 = tested on: NCI-H647
# How it was run: as §1
# NCI-H727 = tested on: NCI-H727
# How it was run: as §1
# RERF-LC-KJ = tested on: RERF-LC-KJ
# How it was run: as §1
# SK-LU-1 = tested on: SK-LU-1
# How it was run: as §1
compound,measurement,setting,value
O=c1cc(-c2cccc3c2Sc2ccccc2S3)oc(N2CCOCC2)c1 + O=C(CCCCCCC(=O)Nc1ccccc1)NO [Vorinostat] (partner 1 µM),relative viability,201T; first compound 0.08 µM,0.919
same,relative viability,201T; first compound 0.253 µM,1.05
same,relative viability,201T; first compound 0.8 µM,0.976
same,relative viability,201T; first compound 2.53 µM,0.912
same,relative viability,201T; first compound 8 µM,0.884
same,relative viability,BEN; first compound 0.08 µM,0.521
same,relative viability,BEN; first compound 0.253 µM,0.645
same,relative viability,BEN; first compound 0.8 µM,0.594
same,relative viability,BEN; first compound 2.53 µM,0.59
same,relative viability,BEN; first compound 8 µM,0.629
same,relative viability,CAL-12T; first compound 0.08 µM,0.677
same,relative viability,CAL-12T; first compound 0.253 µM,0.782
same,relative viability,CAL-12T; first compound 0.8 µM,0.765
same,relative viability,CAL-12T; first compound 2.53 µM,0.799
same,relative viability,CAL-12T; first compound 8 µM,0.699
same,relative viability,HCC-827; first compound 0.08 µM,0.768
same,relative viability,HCC-827; first compound 0.253 µM,0.945
same,relative viability,HCC-827; first compound 0.8 µM,0.77
same,relative viability,HCC-827; first compound 2.53 µM,0.476
same,relative viability,HCC-827; first compound 8 µM,0.923
same,relative viability,LCLC-103H; first compound 0.08 µM,0.757
same,relative viability,LCLC-103H; first compound 0.253 µM,0.814
same,relative viability,LCLC-103H; first compound 0.8 µM,0.66
same,relative viability,LCLC-103H; first compound 2.53 µM,0.727
same,relative viability,LCLC-103H; first compound 8 µM,0.864
same,relative viability,LCLC-97TM1; first compound 0.08 µM,0.638
same,relative viability,LCLC-97TM1; first compound 0.253 µM,0.927
same,relative viability,LCLC-97TM1; first compound 0.8 µM,0.803
same,relative viability,LCLC-97TM1; first compound 2.53 µM,0.602
same,relative viability,LCLC-97TM1; first compound 8 µM,1.06
same,relative viability,LXF-289; first compound 0.08 µM,0.902
same,relative viability,LXF-289; first compound 0.253 µM,0.784
same,relative viability,LXF-289; first compound 0.8 µM,0.782
same,relative viability,LXF-289; first compound 2.53 µM,0.661
same,relative viability,LXF-289; first compound 8 µM,0.819
same,relative viability,NCI-H1395; first compound 0.08 µM,0.636
same,relative viability,NCI-H1395; first compound 0.253 µM,0.625
same,relative viability,NCI-H1395; first compound 0.8 µM,0.777
same,relative viability,NCI-H1395; first compound 2.53 µM,0.669
same,relative viability,NCI-H1395; first compound 8 µM,0.759
same,relative viability,NCI-H1437; first compound 0.08 µM,0.857
same,relative viability,NCI-H1437; first compound 0.253 µM,0.9
same,relative viability,NCI-H1437; first compound 0.8 µM,0.847
same,relative viability,NCI-H1437; first compound 2.53 µM,0.761
same,relative viability,NCI-H1437; first compound 8 µM,0.857
same,relative viability,NCI-H1650; first compound 0.08 µM,0.535
same,relative viability,NCI-H1650; first compound 0.253 µM,0.643
same,relative viability,NCI-H1650; first compound 0.8 µM,0.602
same,relative viability,NCI-H1650; first compound 2.53 µM,0.502
same,relative viability,NCI-H1650; first compound 8 µM,0.556
same,relative viability,NCI-H1793; first compound 0.08 µM,0.653
same,relative viability,NCI-H1793; first compound 0.253 µM,0.846
same,relative viability,NCI-H1793; first compound 0.8 µM,0.541
same,relative viability,NCI-H1793; first compound 2.53 µM,0.627
same,relative viability,NCI-H1793; first compound 8 µM,0.804
same,relative viability,NCI-H1944; first compound 0.08 µM,0.58
same,relative viability,NCI-H1944; first compound 0.253 µM,0.586
same,relative viability,NCI-H1944; first compound 0.8 µM,0.513
same,relative viability,NCI-H1944; first compound 2.53 µM,0.544
same,relative viability,NCI-H1944; first compound 8 µM,0.596
same,relative viability,NCI-H2087; first compound 0.08 µM,0.862
same,relative viability,NCI-H2087; first compound 0.253 µM,0.757
same,relative viability,NCI-H2087; first compound 0.8 µM,1.09
same,relative viability,NCI-H2087; first compound 2.53 µM,0.727
same,relative viability,NCI-H2087; first compound 8 µM,0.917
same,relative viability,NCI-H2228; first compound 0.08 µM,0.824
same,relative viability,NCI-H2228; first compound 0.253 µM,0.646
same,relative viability,NCI-H2228; first compound 0.8 µM,0.76
same,relative viability,NCI-H2228; first compound 2.53 µM,0.7
same,relative viability,NCI-H2228; first compound 8 µM,0.578
same,relative viability,NCI-H2405; first compound 0.08 µM,0.925
same,relative viability,NCI-H2405; first compound 0.253 µM,0.99
same,relative viability,NCI-H2405; first compound 0.8 µM,1.06
same,relative viability,NCI-H2405; first compound 2.53 µM,0.842
same,relative viability,NCI-H2405; first compound 8 µM,0.983
same,relative viability,NCI-H3122; first compound 0.08 µM,0.99
same,relative viability,NCI-H3122; first compound 0.253 µM,1.2
same,relative viability,NCI-H3122; first compound 0.8 µM,1.09
same,relative viability,NCI-H3122; first compound 2.53 µM,0.93
same,relative viability,NCI-H3122; first compound 8 µM,1.05
same,relative viability,NCI-H322M; first compound 0.08 µM,0.839
same,relative viability,NCI-H322M; first compound 0.253 µM,1.01
same,relative viability,NCI-H322M; first compound 0.8 µM,0.948
same,relative viability,NCI-H322M; first compound 2.53 µM,0.825
same,relative viability,NCI-H322M; first compound 8 µM,0.867
same,relative viability,NCI-H647; first compound 0.08 µM,0.527
same,relative viability,NCI-H647; first compound 0.253 µM,0.691
same,relative viability,NCI-H647; first compound 0.8 µM,0.766
same,relative viability,NCI-H647; first compound 2.53 µM,0.638
same,relative viability,NCI-H647; first compound 8 µM,0.782
same,relative viability,NCI-H727; first compound 0.08 µM,1.01
same,relative viability,NCI-H727; first compound 0.253 µM,1.29
same,relative viability,NCI-H727; first compound 2.53 µM,1.09
same,relative viability,NCI-H727; first compound 8 µM,1.24
same,relative viability,RERF-LC-KJ; first compound 0.08 µM,0.558
same,relative viability,RERF-LC-KJ; first compound 0.253 µM,0.64
same,relative viability,RERF-LC-KJ; first compound 0.8 µM,0.713
same,relative viability,RERF-LC-KJ; first compound 2.53 µM,0.655
same,relative viability,RERF-LC-KJ; first compound 8 µM,0.666
same,relative viability,SK-LU-1; first compound 0.08 µM,0.8
same,relative viability,SK-LU-1; first compound 0.253 µM,0.894
same,relative viability,SK-LU-1; first compound 0.8 µM,0.877
same,relative viability,SK-LU-1; first compound 2.53 µM,0.709
same,relative viability,SK-LU-1; first compound 8 µM,0.705
